This is an account of results in PubChem BioAssay (NCI).

Among the test systems are 786-0 renal; ACHN renal; COLO 205 colon; HL-60(TB) leukemia; HT29 colon; KM12 colon; M14 melanoma; OVCAR-4 ovarian; SW-620 colon; UACC-62 melanoma.
Assay in all cases: inhibition of tumour cell growth, NCI panel, 48 h

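Protocol summary: plate cells (96-well), add compound at 5 concentrations, incubate 48 h, interpolate endpoints linearly. Abbreviation: GI50, concentration required for 50% inhibition of growth. TGI: total growth inhibition.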

For the compound `CCCCn1c(=O)[nH]c(N)c([C@@H]2c3c([nH]c(=O)n(CCCC)c3=O)Oc3ccc4ccccc4c32)c1=O`, the GI50 with 786-0 renal is 2.04 µM; in the experiment on ACHN renal it was 1.8 µM; in the experiment with COLO 205 colon, 2 µM; in the experiment with HL-60(TB) leukemia, 2.47 µM; in the experiment on HT29 colon it was 2.46 µM; in the experiment on KM12 colon, 1.69 µM. Besides, the GI50 in the experiment on M14 melanoma was 1.92 µM; in the experiment with OVCAR-4 ovarian it was 2.26 µM; in the experiment with SW-620 colon, 0.37 µM; in the experiment on UACC-62 melanoma, 1.67 µM. Also, the TGI amounted to 4.41 µM in the experiment with 786-0 renal; 3.59 µM with ACHN renal; 4.03 µM in the experiment on COLO 205 colon; 6.75 µM in the experiment on HL-60(TB) leukemia; 4.73 µM with HT29 colon; 3.26 µM with KM12 colon. Moreover, the TGI in the experiment with M14 melanoma turned out to be 4.2 µM; in the experiment with OVCAR-4 ovarian, 10.8 µM; in the experiment with SW-620 colon, 1.18 µM; with UACC-62 melanoma, 3.36 µM.

`N#CCCNc1nonc1-c1nc2ccccc2n1CC(=O)c1ccc(N)cc1`: the GI50 in the experiment on 786-0 renal was 0.0417 µM; with ACHN renal, 0.0362 µM; in the experiment with COLO 205 colon it was 0.022 µM; in the experiment on HL-60(TB) leukemia, below 0.0164 µM; in the experiment with HT29 colon, 0.0226 µM; in the experiment with KM12 colon, below 0.0118 µM. The GI50 in the experiment on M14 melanoma is 0.0249 µM; in the experiment with OVCAR-4 ovarian it was 1.88 µM; with SW-620 colon, 0.031 µM; in the experiment on UACC-62 melanoma it was below 0.0154 µM. Also, the TGI is above 100 µM in the experiment on 786-0 renal; above 100 µM in the experiment on ACHN renal; 0.0477 µM with COLO 205 colon; 0.0701 µM in the experiment on HT29 colon; 1.28 µM in the experiment with KM12 colon; above 100 µM in the experiment with M14 melanoma. The TGI in the experiment with OVCAR-4 ovarian, with SW-620 colon and in the experiment with UACC-62 melanoma was above 100 µM in each case.

For the compound `N#CC1=C(N)Oc2c(sc3c(Br)cccc23)C1c1ccc([N+](=O)[O-])cc1` (configuration not stated), the GI50 is 0.158 µM in the experiment with 786-0 renal; 0.12 µM with ACHN renal; 0.224 µM in the experiment with COLO 205 colon; 0.0816 µM in the experiment on HL-60(TB) leukemia; 0.297 µM with HT29 colon; 0.0997 µM in the experiment with KM12 colon. Also, the GI50 in the experiment on M14 melanoma was 0.0964 µM; in the experiment with OVCAR-4 ovarian, 0.9 µM; with SW-620 colon, 0.0708 µM; with UACC-62 melanoma, 0.0634 µM. The TGI in the experiment on 786-0 renal was determined as 11.9 µM; with ACHN renal it was 13 µM; in the experiment with COLO 205 colon, 1.14 µM; with HL-60(TB) leukemia it was 1.15 µM; in the experiment with HT29 colon, 3.2 µM; in the experiment with KM12 colon it was 9.36 µM. Also, the TGI came to 11.8 µM with M14 melanoma, 18.7 µM with OVCAR-4 ovarian, 14.5 µM in the experiment with SW-620 colon and 12.3 µM in the experiment with UACC-62 melanoma.

Regarding `O=C(CCc1n[nH]c(=S)o1)Nc1cc(Cl)ccc1Cl`, the TGI is 99.2 µM in the experiment on 786-0 renal; above 100 µM in the experiment on ACHN renal; above 100 µM in the experiment on COLO 205 colon; 78.9 µM in the experiment with HL-60(TB) leukemia; above 100 µM in the experiment on HT29 colon; above 100 µM in the experiment with KM12 colon. The TGI is above 100 µM in the experiment with M14 melanoma, above 100 µM in the experiment with OVCAR-4 ovarian, 32.1 µM in the experiment with SW-620 colon and above 100 µM in the experiment with UACC-62 melanoma.

On to `CN1C(=O)C(c2c[nH]c3ccccc23)=C(c2c[nH]c3ccccc23)C1=O`, for which the GI50 in the experiment with 786-0 renal is 9.85 µM; in the experiment on ACHN renal, 6 µM; in the experiment with COLO 205 colon it was 4.77 µM; in the experiment on HL-60(TB) leukemia, 6.37 µM; in the experiment with HT29 colon, 8.47 µM; in the experiment on KM12 colon, 5.66 µM. The GI50 with M14 melanoma is 5.96 µM; with OVCAR-4 ovarian it was 7.58 µM; with SW-620 colon, 5.78 µM; in the experiment with UACC-62 melanoma, 3.07 µM. The TGI in the experiment on 786-0 renal was above 25 µM; in the experiment with ACHN renal, above 25 µM; with COLO 205 colon, 12.4 µM; with HL-60(TB) leukemia it was 18.1 µM; in the experiment with HT29 colon, above 25 µM; in the experiment with KM12 colon, above 21.3 µM. In addition, the TGI with M14 melanoma was 17.2 µM; in the experiment on OVCAR-4 ovarian, above 25 µM; in the experiment with SW-620 colon, above 25 µM; with UACC-62 melanoma it was 17.3 µM.

In the case of `C/C(CN1C(=O)c2ccccc2C1=O)=N\NS(=O)(=O)c1ccc2ccccc2c1`, the TGI in the experiment on 786-0 renal, with ACHN renal, with COLO 205 colon, with HL-60(TB) leukemia, in the experiment on HT29 colon and with KM12 colon was above 100 µM throughout. For the same compound, the TGI in the experiment on M14 melanoma, with OVCAR-4 ovarian, in the experiment on SW-620 colon and with UACC-62 melanoma was above 100 µM in each case.

For `Nc1c(C(=O)Nc2cccc(Cl)c2)sc2nc3c(cc12)C(=O)CCC3`, the GI50 in the experiment on 786-0 renal is 0.739 µM; in the experiment with ACHN renal, above 20 µM; in the experiment with COLO 205 colon, 0.288 µM; in the experiment with HT29 colon, 0.338 µM; in the experiment on KM12 colon, 0.298 µM; in the experiment with M14 melanoma, 0.485 µM. For the same compound, the GI50 with OVCAR-4 ovarian was 13.3 µM; with SW-620 colon it was 0.351 µM; in the experiment on UACC-62 melanoma, 0.349 µM. Further, the TGI in the experiment on 786-0 renal, in the experiment on ACHN renal, in the experiment with HL-60(TB) leukemia, with HT29 colon, with KM12 colon and in the experiment on M14 melanoma was above 100 µM each time. In addition, the TGI in the experiment with OVCAR-4 ovarian, in the experiment with SW-620 colon and with UACC-62 melanoma was above 100 µM in each case.

As for `CC(C)(C)CC(C)(C)c1ccc(OCCO)cc1`, the GI50 in the experiment on 786-0 renal is 10.9 µg/mL; in the experiment on ACHN renal it was 6.05 µg/mL; in the experiment on COLO 205 colon, 4.69 µg/mL; in the experiment on HL-60(TB) leukemia, 1.81 µg/mL; in the experiment on HT29 colon, 10.6 µg/mL; in the experiment with KM12 colon it was 7.81 µg/mL. The GI50 in the experiment on M14 melanoma was 9.29 µg/mL; in the experiment on OVCAR-4 ovarian it was 1.5 µg/mL; with SW-620 colon it was 7.73 µg/mL; with UACC-62 melanoma it was 3.51 µg/mL. The TGI in the experiment with 786-0 renal is 33.7 µg/mL; with ACHN renal, above 75 µg/mL; with COLO 205 colon it was 15.4 µg/mL; in the experiment on HL-60(TB) leukemia it was 31.6 µg/mL; with HT29 colon, 28.1 µg/mL; in the experiment with KM12 colon, 18.6 µg/mL. Further, the TGI with M14 melanoma turned out to be 20.6 µg/mL; with OVCAR-4 ovarian, 21.5 µg/mL; in the experiment on SW-620 colon it was 18.6 µg/mL; with UACC-62 melanoma, 15.9 µg/mL.
